Measured values: patent US9567301B2, “Pyrrol-1-yl benzoic acid derivatives useful as myc inhibitors” (Whitehead Institute for Biomedical Research, priority 2012, dated 2017)

Biological target: c-Myc/Max/Ebox DNA (Homo sapiens, UniProt P01106)
Experiment: c-Myc/Max/Ebox DNA AlphaScreen assay
Type: binding
Design: An exemplary assay uses full-length human c-Myc and Max proteins; his6 (cleaved yes); made in house
Conditions: c-Myc/Max/Ebox DNA AlphaScreen; NA: inactive under assay conditions; read-out: Biochemical IC50
Protocol: This protocol was used to generate the biochemical data in Table 2 and FIG. 11. The primary AlphaScreen assay is amenable to 384-well and 1536-well plate formats for HTS. Human his6-c-Myc and his6-Max were used with biotinylated DNA containing a single Ebox sequence (biotin[…]) purchased from MWG Operon. Free c-Myc was generated from his6-c-Myc through thrombin cleavage of the his6 tag. For 384-well plate assays, 10 μL of a 2× solution of free c-Myc (25 nM final), Ni++-coated Acceptor Bead (25 μg/ml final), and biotinylated Ebox oligo (10 nM final) were added to 384-well plates with a Biotek EL406 liquid handler. 100 nL of compounds from stock plates were added by pin transfer using a Janus Workstation (PerkinElmer), allowing the compounds to interact with c-Myc prior to c-Myc binding with Max. In the current assay, DMSO was not allowed to exceed 2% v/v of the assay. 10 μl of 2× master mix containing streptavidin-coated donor beads (25 μg/ml final) and his6-Max (1.25 nM final) were added. AlphaScreen measurements were performed on an Envision 2104 (PerkinElmer) utilizing the manufacturer's protocol. The assay can also be performed in 1536-plate format with 8 μL total volume using two 4 μL additions (instead of […] and 10 μL respectively).
Assays are performed with minor modifications from the manufacturer's protocol (PerkinElmer). Both master mixes were made in room temperature assay buffer (50 mM HEPES, 150 mM NaCl, 0.2% w/v BSA, 0.02% w/v Tween20, 40 μg/ml glycogen, 500 μM DTT, pH 8.0, DTT and glycogen added fresh). Alpha beads were added to respective master solutions and wrapped in foil. All subsequent steps were performed in low light conditions. Solution 1: 2× solution of components with final concentrations of cMyc (25 nM), Ni-coated Acceptor Bead (25 μg/ml), and biotinylated Ebox oligo (10 nM). Solution 2: 2× solution of streptavidin-coated donor beads (25 μg/ml final) and his6-Max (1.25 nM final). […] Solution 1 were added to 384-well plate (AlphaPlate-384, PerkinElmer) with Biotek EL406 liquid handler and the plates were centrifuged at 1000 rpm for 1 minute. 100 nL of compounds from stock plates were added by pin transfer using a Janus Workstation. 10 μL Solution 2 were added with the liquid handler. Plates were sealed with foil to block light exposure and prevent evaporation. Plates were centrifuged at 1000 rpm for 1 minute followed by 2 hour incubation. AlphaScreen measurements were performed on an Envision 2104 utilizing the manufacturer's protocol. Excitation was at 680 nm for donor bead release of singlet oxygen and emission was read with a bandpass filter from 520-620 nm. Glycogen: Roche Diagnostics #10901393001. Plate 1536: Perkin Elmer, 6004350. Plate 384: Perkin Elmer, 6005350. Nickel-His Alpha Beads: 6760619R.

Chain of c-Myc/Max/Ebox DNA (P01106 16-454): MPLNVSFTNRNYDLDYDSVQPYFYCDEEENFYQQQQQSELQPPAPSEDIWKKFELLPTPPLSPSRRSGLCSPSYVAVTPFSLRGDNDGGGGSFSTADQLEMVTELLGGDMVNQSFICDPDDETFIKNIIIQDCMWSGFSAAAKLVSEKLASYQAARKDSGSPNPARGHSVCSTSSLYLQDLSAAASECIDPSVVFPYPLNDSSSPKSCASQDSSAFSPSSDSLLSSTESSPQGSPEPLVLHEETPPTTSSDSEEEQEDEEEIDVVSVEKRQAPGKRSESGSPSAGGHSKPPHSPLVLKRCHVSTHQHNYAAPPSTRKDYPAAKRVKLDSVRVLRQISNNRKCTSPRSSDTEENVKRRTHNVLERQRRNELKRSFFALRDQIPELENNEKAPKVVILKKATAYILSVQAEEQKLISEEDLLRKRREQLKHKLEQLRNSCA

Row | Structure (SMILES) | IC50 [µM]
1 | Cc1ccc(C)n1-c1ccc(C(=O)O)cc1O [Compound 7] | 23.5
2 | Cc1ccc(C)n1-c1ccc(C(=O)O)cc1 [Compound 3] | 287
3 | CN(C)c1ccc(/N=N/c2ccccc2C(=O)O)cc1 [Compound 154] | 43.4
4 | Cc1cc(/C=C2\C(=O)NC(=O)N(c3ccc(F)cc3)C2=O)c(C)n1-c1ccccc1C(=O)O [Compound 55] | 58.5
5 | Cc1ccc(C)n1-c1cc(C(=O)N2CCc3ccc(C(=O)O)cc3C2)ccc1C(=O)O [Compound 165] | 0.343
6 | Cc1cc(/C=C(\C#N)C(=O)Nc2ccc(O)cc2)c(C)n1-c1ccccc1C(=O)O [Compound 52] | 36.2
7 | Cc1c(-c2ccccc2)c2c(n1-c1ccc(C(=O)O)cc1)CCCC2 [Compound 49] | 42
8 | Cc1cc(/C=C(/C#N)c2nc3ccccc3[nH]2)c(C)n1-c1ccccc1C(=O)O [Compound 59] | 125
9 | CC(=O)Nc1ccc(-n2c(C)ccc2C)c(C(=O)O)c1 [Compound 40] | 34.4
10 | Cc1c2ccccc2c(C)n1-c1ccccc1C(=O)O [Compound 137] | 57.8
11 | Cc1ccc(C)n1-c1cc(C(=O)N2CCOCC2)ccc1C(=O)O [Compound 75] | 8.58
12 | Cc1cc(/C=C2\C(=O)NC(=O)N(C)C2=O)c(C)n1-c1cccc(C(=O)O)c1 [Compound 46] | 76.8
13 | CCCCC(=O)Nc1ccc(N2CCC(C)CC2)c(C(=O)O)c1 [Compound 32] | 881
14 | COc1cc(C(=O)O)c(-n2c(C)ccc2C)cc1OC [Compound 37] | 62.7
15 | CCCC(=O)Nc1ccc(N2CCCCCC2)cc1C(=O)O [Compound 31] | 172
16 | Cc1ccc(C(=O)O)cc1-n1c(C)cc(CN2C[C@H](N(C)C)C[C@H]2CO)c1C [Compound 45] | 115
17 | Cc1ccc(C)n1-c1cc(C(=O)N/N=C/c2cccc(B(O)O)c2)ccc1C(=O)O [Compound 82] | 2.95
18 | Cc1ccc(C)n1-c1ccc(Cl)cc1C(=O)O [Compound 147] | 11.5
19 | Cc1cccc(C)c1-c1ccccc1C(=O)O [Compound 60] | 89.1
20 | Cc1ccc(C)n1-c1ccc(Br)cc1C(=O)O [Compound 36] | 64.7
21 | Cc1ccccc1N1C(=O)NC(=O)/C(=C\c2cc(C)n(-c3ccccc3C(=O)O)c2C)C1=O [Compound 53] | 2510

Row | Structure (SMILES) | IC50 [µM]
22 | Cc1ccc(C)n1-c1cc(C(=O)N/N=C/c2cc(C(=O)O)ccc2F)ccc1C(=O)O [Compound 125] | 1.25
23 | Cc1cc(C(=O)O)ccc1-n1c(C)ccc1C [Compound 11] | 45.8
24 | Cc1cc2c(n1-c1ccc(C(=O)O)cc1)CCCCC2 [Compound 48] | 51.8
25 | CC1(C)CC(=O)c2cc(CC(=O)O)n(-c3ccc(C(=O)O)cc3)c2C1 [Compound 51] | 523
26 | Cc1ccc(C)n1-c1cc(C(=O)N/N=C/c2ccc(O)cc2)ccc1C(=O)O [Compound 83] | 6.85
27 | Cc1ccc(C)n1-c1cc(C(=O)N/N=C/c2ccc(-c3cncnc3)cc2)ccc1C(=O)O [Compound 102] | 26.5
28 | Cc1ccc(C)n1-c1cc(C(=O)N/N=C/c2c[nH]c3ccc(F)cc23)ccc1C(=O)O [Compound 95] | 23.3
29 | Cc1cc(/C=C2\SC(=O)N(C)C2=O)c(C)n1-c1ccccc1C(=O)O [Compound 56] | 103
30 | Cc1ccc(C)n1-c1cccc(C(=O)O)c1 [Compound 2] | 74.5
31 | CC(=O)Nc1ccc(N2CCCC(C)C2)c(C(=O)O)c1 (stereo not drawn) [Compound 34] | 191
32 | Cc1ccc(C)n1-c1cc(C(=O)N/N=C\c2ccc(O)c(F)c2)ccc1C(=O)O [Compound 117] | 6.52
33 | O=C(O)c1cc(-n2cccc2)ccc1N1CCOCC1 [Compound 30] | 273
34 | Cc1ccc(-c2ccccc2)n1-c1ccccc1C(=O)O [Compound 41] | 324
35 | Cc1ccc(C)n1-c1cc(C(=O)N/N=C/c2ccc(S(=O)(=O)O)o2)ccc1C(=O)O [Compound 84] | 0.534
36 | Cc1ccc(C)n1-c1cc(C(=O)NNC(=O)c2cccc(C(=O)O)c2)ccc1C(=O)O [Compound 166] | 1.89
37 | Cc1ccc(C)n1-c1cc(C(=O)N/N=C/c2ccc3nccnc3c2)ccc1C(=O)O [Compound 104] | 7.11
38 | O=C(O)c1ccccc1-n1c(-c2ccccc2)cc2c1CCCC2=O [Compound 29] | 252
39 | Cc1ccc(C)n1-c1ccc(Cl)cc1C(=O)O [Compound 35] | 31.3
40 | Cc1ccc(C)n1-c1cc(C(=O)O)ccc1O [Compound 4] | 34.1
41 | Cc1cc2c(n1-c1cccc(C(=O)O)c1)CC(C)(C)CC2=O [Compound 42] | 697
42 | Cc1ccc(C)n1-c1cc(C(=O)N/N=C\c2cc(F)c(C(=O)O)c(F)c2)ccc1C(=O)O [Compound 118] | 0.48

Row | Structure (SMILES) | IC50 [µM]
43 | COC(=O)c1ccc(-n2c(C)ccc2C)cc1O [Compound 18] | 1.54
44 | CN1CCN(c2ccccc2C(=O)O)CC1 [Compound 156] | 346
45 | Cc1cc(/C=N/NC(N)=S)c(C)n1-c1ccccc1C(=O)O [Compound 54] | 16.3
46 | CC1(C)CC(=O)c2cc(CC(=O)O)n(-c3cccc(C(=O)O)c3)c2C1 [Compound 43] | 197
47 | Cc1cc(/C=C2\SC(=O)N(C)C2=O)c(C)n1-c1ccccc1C(=O)O [Compound 57] | 92.2
48 | Cc1ccc(C)n1-c1cc(C(=O)N/N=C/c2c[nH]cn2)ccc1C(=O)O [Compound 78] | 1.75
49 | CC(=O)Nc1ccc(N2CCCCCC2)c(C(=O)O)c1 [Compound 33] | 171
50 | Cc1ccc(C)n1-c1cc(C(=O)N/N=C/c2cccnc2)ccc1C(=O)O [Compound 86] | 5.97
51 | Cc1ccc(C)n1-c1cc(C(=O)NCCc2ccc(O)c(O)c2)ccc1C(=O)O [Compound 73] | 33.4
52 | Cc1ccc(C)n1-c1cc(C(=O)N/N=C/c2ccccc2)ccc1C(=O)O [Compound 121] | 7.69
53 | Cc1ccc(C(=O)O)cc1-n1c(C)cc(CN2CCC(N)(C(=O)O)C2)c1C (stereo not drawn) [Compound 44] | 194
54 | Cc1cc(/C=C(/C#N)C(=O)NCCc2c[nH]c3ccccc23)c(C)n1-c1ccccc1C(=O)O [Compound 58] | 135
55 | Cc1cc2c(n1-c1ccc(C(=O)O)cc1)CC(C)(C)CC2=O [Compound 50] | 446
56 | Cc1ccc(C)n1-c1ccc(C(=O)O)c(O)c1 [Compound 5] | 4.29
57 | Cc1ccc(C)n1-c1cc(Cl)ccc1C(=O)O [Compound 38] | 63.7
58 | CC(=O)c1cc(C)n(-c2ccc(C(=O)O)cc2)c1C [Compound 47] | 166
59 | Cc1ccc(C)n1-c1cc(C(=O)N/N=C/c2cccc(C(=O)O)c2)ccc1C(=O)O [Compound 120] | 0.393
60 | Cc1ccc(C)n1-c1cc(C(=O)N/N=C/c2ccc(C(=O)O)o2)ccc1C(=O)O [Compound 124] | 0.708
61 | Cc1cc(C(=O)N/N=C/c2ccccc2)c(C)n1-c1ccccc1C(=O)O [Compound 61] | 49.2

Test system: H2171 cells
Experiment: Cell viability assay (ATPlite), H2171
Type: cell-based, human
Conditions: Homo sapiens, NCI-H2171, 72 h, cell viability, three days, ATPlite; NA: inactive under assay conditions
Protocol: This assay was used for the H2171 and MM1S cell data shown in Table 2, and for the Jurkat (an immortalized line of human T lymphocyte cells), Ly1 (OCI-Ly1 human non-Hodgkin lymphoma cell line), Ly4 (OCI-Ly4 human non-Hodgkin lymphoma cell line), H2172 (NCI-H2172 human non-small cell lung cancer cell line), and CA-46 (a human Burkitt's lymphoma cell line) cell data shown in Table 3 and FIG. 12. Cells were counted and adjusted to 60,000 cells/mL. Using a Biotek EL406, 50 μL of cells are media were distributed into 384 well white plates from Thermo. Immediately after plating, compound in DMSO was distributed to plates. For large plate sets, cells were returned to 37° C. incubator while not in use.
Compounds were added to plates using a 100 nL 384 well pin transfer manifold on a Janus workstation. Stocks were arrayed in 10 point quadruplicate dose response in DMSO stock in 384 well Greiner compound plates. After addition of compound, plates were incubated for three days in a 37° C. incubator.
Cell viability was read out using ATPlite from Perkin Elmer. Plates were removed from the incubator and brought to room temperature prior to use. Lyophilized powder was resuspended in lysis buffer and diluted 1:2 with DI water. 25 μL of this solution was added to each well using the Biotek liquid handler. Plates were sealed with adherent aluminum seals prior to vortexing and spinning down at 1000 g for 1 minute. Plates were incubated for 15 minutes at room temperature before signal was read on an Envision Plate Reader.

Row | Structure (SMILES) | EC50 [µM]
62 | Cc1ccc(C)n1-c1ccc(C(=O)O)cc1O [Compound 7] | 122
63 | Cc1ccc(C)n1-c1cc(C(=O)N2CCOCC2)ccc1C(=O)O [Compound 75] | 114
64 | Cc1ccc(C)n1-c1ccc(Cl)cc1C(=O)O [Compound 147] | 170
65 | Cc1cc(C(=O)O)ccc1-n1c(C)ccc1C [Compound 11] | 60.6
66 | CC(=O)OCOC(=O)c1ccc(C(=O)N/N=C/c2c[nH]cn2)cc1-n1c(C)ccc1C [Compound 108] | 0.556
